Measurements taken from patent publication US20160115192A1, “ANTIOXIDANT, ANTI-INFLAMMATORY AND ANTICANCER DERIVATIVES OF TRIPTOLIDE AND NANOSPHERES THEREOF” (CEDARS-SINAI MEDICAL CENTER, priority 2013, published 2016).

Experiments:
[1] = cited from earlier work
[2] = 30 minutes after administration; cited from earlier work
B7-H1 (PD-L1) = assay: Inhibition of interferon-γ-dependent expression of B7-H1 (PD-L1) on cancer cells; assay type: cell-based
B7-H1 = conditions: known effect, background; cited from earlier work

SMILES	solubility in water [1]	lactone form hydrolyzed to an open ring [2] [%]	inhibitory effect on interferon-γ-dependent expression of B7-H1 (PD-L1) (B7-H1 (PD-L1); MDA-MB-231 triple negative breast cancer cell, FIG. 9)	inhibitory effect on interferon-γ-dependent expression of B7-H1 (PD-L1) (B7-H1 (PD-L1); MDA-MB-468 triple negative breast cancer cell, FIG. 10)	inhibitory effect on interferon-γ-dependent expression of B7-H1 (PD-L1) (B7-H1 (PD-L1); U-87 MG glioma cells, FIG. 8)	inhibitory effect on interferon-γ-dependent expression of B7-H1 (PD-L1) (B7-H1 (PD-L1); U-87 stem-like cells, FIG. 5)	inhibitory effect on interferon-γ-dependent expression of B7-H1 (PD-L1) (B7-H1 (PD-L1); U-251 glioma cell, FIG. 7)	inhibitory effect on interferon-γ-dependent expression of B7-H1 (PD-L1) (B7-H1 (PD-L1); cancer stem cell (CSC-5), FIG. 6)	expression of B7-H1 by cancer cells (B7-H1)
CC[C@@]1(O)C(=O)OCc2c1cc1n(c2=O)Cc2cc3ccccc3nc2-1 [camptothecin, (S)-4-ethyl-4-hydroxy-1H-pyrano-[3′,4′:6,7]indolizino[1,2-b]quinoline-3, 14(4H,12H)-dione]	essentially insoluble	50	–	–	–	–	–	–	–
CC(C)[C@]12O[C@H]1[C@@H]1O[C@]13[C@]1(O[C@H]1C[C@H]1C4=C(CC[C@@]13C)C(=O)OC4)[C@@H]2O [triptolide, Triptolide]	–	–	inhibitory effect	inhibitory effect	Inhibitory effect	inhibitory effect	inhibitory effect	inhibitory effect	inhibit
